The record followed here is ChEMBL document CHEMBL1144309, “Specific recognition of napthyridine-based ligands toward guanine-containing bulges in RNA duplexes and RNA-DNA heteroduplexes” (Bioorg Med Chem Lett, 2005).

Assay [1] concerns Human immunodeficiency virus 1. The assay can be described thus: Dissociation constant was measured against HIV-1 RNA construct J (present in HIV-1 RRE IIB RNA region). Format: functional.
The subject of assay [2] is Human immunodeficiency virus 1. The assay can be described thus: Dissociation constant was measured against HIV-1 RNA construct I (present in HIV-1 RRE IIB RNA region). Format: functional.
In assay [3] the test system is Human immunodeficiency virus 1. The assay is described as follows: Dissociation constant was measured against HIV-1 RNA construct K (present in HIV-1 RRE IIB RNA region). Format: functional.
Assay [4] relates to Human immunodeficiency virus 1. The assay can be described thus: Dissociation constant was measured against HIV-1 RNA construct H (present in HIV-1 RRE IIB RNA region); N.B. = no measurable binding. Format: functional, organism-based.
The test system of assay [5] is Human immunodeficiency virus 1. The assay can be described thus: Dissociation constant was measured against HIV-1 RNA construct F (present in HIV-1 RRE IIB RNA region); N.B. = no measurable binding. Format: functional, organism-based.
Assay [6] deals with Human immunodeficiency virus 1. The assay is described as follows: Dissociation constant was measured against HIV-1 RNA construct G (present in HIV-1 RRE IIB RNA region); N.B. = no measurable binding. Format: functional, organism-based.
In assay [7] the test system is Human immunodeficiency virus 1. The assay can be described thus: Dissociation constant was measured against HIV-1 RNA construct A (present in HIV-1 RRE IIB RNA region). Format: functional.
Assay [8] concerns Human immunodeficiency virus 1. The assay can be described thus: Dissociation constant was measured against HIV-1 RNA construct C (present in HIV-1 RRE IIB RNA region). Format: functional.
Assay [9] concerns Human immunodeficiency virus 1. The assay can be described thus: Dissociation constant was measured against HIV-1 RNA construct E (present in HIV-1 RRE IIB RNA region); N.B. = no measurable binding. Format: functional.
Assay [10] concerns Human immunodeficiency virus 1. The assay is described as follows: Dissociation constant was measured against HIV-1 RNA construct D (present in HIV-1 RRE IIB RNA region). Format: functional.
Assay [11] has as its system Human immunodeficiency virus 1. The assay can be described thus: Dissociation constant was measured against HIV-1 RNA construct B (present in HIV-1 RRE IIB RNA region). Format: functional.

In the case of `Cc1ccc2ccc(NC(=O)CCNCCNCCC(=O)Nc3ccc4ccc(C)nc4n3)nc2n1`, the figures for the Kd in assay [1], in [2] and in assay [3] were 32.3 µM, 35.1 µM and 34.9 µM, respectively.
On to `Cc1ccc2ccc(NC(=O)CCN)nc2n1`, for which the Kd – broadly, the equilibrium constant for the complex coming apart – in assay [4] was “No binding”; in [5], “No binding”; in [6], “No binding”; in assay [7], 1400 nM; in assay [8], 2900 nM; in [9], “No binding”. For the same compound, the Kd in assay [10] came to 3.2 µM; in assay [11], 2400 nM.
